Measurements: ChEMBL document CHEMBL1201862, “PubChem BioAssay data set” (2004)
Counter-ions that a name gives are not always drawn.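 Five compound concentrations were applied to cells in 96-well plates for 48 hours; endpoints were derived by simple linear interpolation of the resulting dose-response curve. Here, GI50 denotes the concentration required for 50% inhibition of growth.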 The source made the active and inactive calls. No stated cut-off is given here; in the data, active = GI50 up to about 1.1 µM and inactive = higher.

Tests used:
Experiment in all cases: DTP human tumour cell line panel, 48 h
A498 = tested on: A498
A549 = tested on: A549
CCRF-CEM = tested on: CCRF-CEM
COLO 205 = tested on: COLO 205
DU-145 = tested on: DU-145
EKVX = tested on: EKVX
HCT-15 = tested on: HCT-15
HT-29 = tested on: HT-29
Hs-578T = tested on: Hs-578T
M14 = tested on: M14
MCF7 = tested on: MCF7
PC-3 = tested on: PC-3
SF-539 = tested on: SF-539
SK-MEL-28 = tested on: SK-MEL-28
SK-MEL-5 = tested on: SK-MEL-5
SW-620 = tested on: SW-620
T47D = tested on: T47D
UACC-257 = tested on: UACC-257
SF-268 = tested on: SF-268
HOP-92 = tested on: HOP-92

Row | SMILES | GI50 (A498) | GI50 (A549) | GI50 (CCRF-CEM) | GI50 (COLO 205) | GI50 (DU-145) | GI50 (EKVX) | GI50 (HCT-15) [µM] | GI50 (HT-29) | GI50 (Hs-578T) | GI50 (M14) | GI50 (MCF7) | GI50 (PC-3) | GI50 (SF-539) | GI50 (SK-MEL-28) | GI50 (SK-MEL-5) | GI50 (SW-620) | GI50 (T47D) | GI50 (UACC-257) | GI50 (SF-268) | GI50 (HOP-92)
1 | Cc1nnc2sc(Cl)nn12 | 31.3 µM (inactive) | 26.1 µM (inactive) | 3.85 µM (inactive) | 14.5 µM (inactive) | 34.4 µM (inactive) | 24.9 µM (inactive) | 19.3 | 16.7 µM (inactive) | 39.5 µM (inactive) | 13.6 µM (inactive) | 13.3 µM (inactive) | 17.2 µM (inactive) | 20.9 µM (inactive) | 19.4 µM (inactive) | 12.6 µM (inactive) | 3.92 µM (inactive) | 22.9 µM (inactive) | > 10 µM (inactive) | – | –
2 | CNc1ccc(N)cc1C(=O)N1CCC[C@H]1CO | > 100 µM (inactive) | > 100 µM (inactive) | > 100 µM (inactive) | > 100 µM (inactive) | > 100 µM (inactive) | > 100 µM (inactive) | > 100 | > 100 µM (inactive) | > 100 µM (inactive) | > 100 µM (inactive) | > 100 µM (inactive) | > 100 µM (inactive) | > 100 µM (inactive) | > 100 µM (inactive) | > 100 µM (inactive) | > 100 µM (inactive) | > 100 µM (inactive) | > 100 µM (inactive) | > 100 µM (inactive) | –
3 | CC(=O)c1c2c(cc3c1CC1(Cc4cc5c(cc4C1)CCCC5)C3)CCCC2 | 56.6 µM (inactive) | > 100 µM (inactive) | – | 77.1 µM (inactive) | – | > 100 µM (inactive) | 36.1 | 50.9 µM (inactive) | > 100 µM (inactive) | > 100 µM (inactive) | 19.4 µM (inactive) | 51.4 µM (inactive) | > 100 µM (inactive) | – | 10.3 µM (inactive) | – | > 100 µM (inactive) | 13 µM (inactive) | – | > 100 µM (inactive)
4 | N#Cc1ncn(CCO)c1N | > 100 µM (inactive) | > 100 µM (inactive) | > 100 µM (inactive) | > 100 µM (inactive) | > 100 µM (inactive) | > 100 µM (inactive) | > 100 | > 100 µM (inactive) | > 100 µM (inactive) | > 100 µM (inactive) | > 100 µM (inactive) | > 100 µM (inactive) | > 100 µM (inactive) | > 100 µM (inactive) | > 100 µM (inactive) | > 100 µM (inactive) | > 100 µM (inactive) | > 100 µM (inactive) | > 100 µM (inactive) | –
5 | CC(C)(C)OC(=O)NCCCCC(NC(=O)c1ccccc1)C(N)=O (stereo not drawn) | > 100 µM (inactive) | > 100 µM (inactive) | > 100 µM (inactive) | > 100 µM (inactive) | > 100 µM (inactive) | > 100 µM (inactive) | > 100 | > 100 µM (inactive) | > 100 µM (inactive) | > 100 µM (inactive) | > 100 µM (inactive) | > 100 µM (inactive) | > 100 µM (inactive) | > 100 µM (inactive) | > 100 µM (inactive) | > 100 µM (inactive) | > 100 µM (inactive) | > 100 µM (inactive) | > 100 µM (inactive) | –
6 | COc1cc2c(c(OC)c1OC)-c1ccc(OC)c(=O)cc1C(NC(=O)CCCCCNc1ccc(N=[N+]=[N-])cc1[N+](=O)[O-])CC2 (stereo not drawn) | < 0.01 µM (active) | < 0.01 µM (active) | < 0.01 µM (active) | < 0.01 µM (active) | < 0.01 µM (active) | < 0.0136 µM (active) | 0.0418 | < 0.01 µM (active) | < 0.01 µM (active) | < 0.01 µM (active) | < 0.01 µM (active) | < 0.01 µM (active) | < 0.01 µM (active) | < 0.01 µM (active) | < 0.01 µM (active) | < 0.01 µM (active) | 20.5 µM (inactive) | – | < 0.01 µM (active) | –
7 | Cc1ccc(S(=O)(=O)N/N=c2/sc3ccccc3n2C)cc1 | > 100 µM (inactive) | > 100 µM (inactive) | > 100 µM (inactive) | > 100 µM (inactive) | > 100 µM (inactive) | > 100 µM (inactive) | > 100 | > 100 µM (inactive) | > 100 µM (inactive) | – | – | > 100 µM (inactive) | > 100 µM (inactive) | > 100 µM (inactive) | > 100 µM (inactive) | > 100 µM (inactive) | > 100 µM (inactive) | > 100 µM (inactive) | > 100 µM (inactive) | > 100 µM (inactive)
8 | Cn1ccnc1Oc1ccc(Cl)cc1 | 16.9 µM (inactive) | 34.2 µM (inactive) | – | 13 µM (inactive) | 15.9 µM (inactive) | 19.8 µM (inactive) | 11.7 | 13.7 µM (inactive) | 24.4 µM (inactive) | 13.7 µM (inactive) | 12 µM (inactive) | 14.3 µM (inactive) | 11.9 µM (inactive) | 14.4 µM (inactive) | 14.1 µM (inactive) | 13 µM (inactive) | 2.18 µM (inactive) | 9.75 µM (inactive) | 28.5 µM (inactive) | 11 µM (inactive)
9 | COc1ccc(C(OCC2OC(n3ccc(NC(=O)c4ccccc4)nc3=O)C(O)C2O)(c2ccccc2)c2ccccc2)cc1 (stereo not drawn) | 1.62 µM (inactive) | 4.06 µM (inactive) | 2.26 µM (inactive) | 2 µM (inactive) | 3.37 µM (inactive) | 2.72 µM (inactive) | 1.82 | 1.53 µM (inactive) | 2.12 µM (inactive) | 2.03 µM (inactive) | 2.22 µM (inactive) | 3.09 µM (inactive) | 2.34 µM (inactive) | 2.72 µM (inactive) | 1.91 µM (inactive) | 3.13 µM (inactive) | 3.54 µM (inactive) | 8.39 µM (inactive) | 5.18 µM (inactive) | –
10 | N#CC1(c2ccccc2)CCN(C2(c3ccccc3)CCCCC2)CC1 | – | > 100 µM (inactive) | > 100 µM (inactive) | > 100 µM (inactive) | > 100 µM (inactive) | > 100 µM (inactive) | > 100 | > 100 µM (inactive) | 44 µM (inactive) | > 100 µM (inactive) | > 100 µM (inactive) | > 100 µM (inactive) | – | > 100 µM (inactive) | > 100 µM (inactive) | > 100 µM (inactive) | > 100 µM (inactive) | > 100 µM (inactive) | > 100 µM (inactive) | –
11 | CCOC(=O)c1nnsc1N/N=C\c1ccc([N+](=O)[O-])cc1 | – | > 100 µM (inactive) | > 100 µM (inactive) | > 100 µM (inactive) | > 100 µM (inactive) | > 100 µM (inactive) | > 100 | > 100 µM (inactive) | > 100 µM (inactive) | > 100 µM (inactive) | > 100 µM (inactive) | > 100 µM (inactive) | – | > 100 µM (inactive) | > 100 µM (inactive) | > 100 µM (inactive) | > 100 µM (inactive) | > 100 µM (inactive) | 77.4 µM (inactive) | –
12 | COc1ccc([S+]([O-])Cc2cc(OC)c(OC)c(OC)c2)cc1 (stereo not drawn) | – | 49.1 µM (inactive) | 41.3 µM (inactive) | 52.8 µM (inactive) | > 100 µM (inactive) | > 100 µM (inactive) | 30.4 | 31.3 µM (inactive) | > 100 µM (inactive) | 35.2 µM (inactive) | 39.5 µM (inactive) | > 100 µM (inactive) | 56.5 µM (inactive) | 95.3 µM (inactive) | 29.6 µM (inactive) | 30.3 µM (inactive) | > 100 µM (inactive) | > 100 µM (inactive) | 97.5 µM (inactive) | –
13 | N#Cc1c(N)c2c(c(-c3ccccc3)c1-c1ccccc1)C(=O)N(N)C2=O | – | 94 µM (inactive) | 42.7 µM (inactive) | > 100 µM (inactive) | > 100 µM (inactive) | > 100 µM (inactive) | > 100 | > 100 µM (inactive) | 60.1 µM (inactive) | > 100 µM (inactive) | > 100 µM (inactive) | 74.6 µM (inactive) | 47.1 µM (inactive) | > 100 µM (inactive) | 87.9 µM (inactive) | > 100 µM (inactive) | 49.4 µM (inactive) | > 100 µM (inactive) | > 100 µM (inactive) | 26.9 µM (inactive)
14 | O=C(COc1ccc(OCC(=O)N2C(=O)CN(c3ccccc3)C2=S)cc1)N1C(=O)CN(c2ccccc2)C1=S | > 56.5 µM (inactive) | > 56.1 µM (inactive) | – | > 100 µM (inactive) | > 61 µM (inactive) | > 53.6 µM (inactive) | > 54.1 | > 56.9 µM (inactive) | > 64.4 µM (inactive) | > 57.9 µM (inactive) | > 54.3 µM (inactive) | > 25 µM (inactive) | > 100 µM (inactive) | > 100 µM (inactive) | > 25 µM (inactive) | > 100 µM (inactive) | > 58.3 µM (inactive) | > 54.7 µM (inactive) | > 59.4 µM (inactive) | > 53.2 µM (inactive)
15 | CN[C@@H](C)[C@@H](O)c1ccccc1 [PSEUDOEPHEDRINE HYDROCHLORIDE] | – | > 100 µM (inactive) | > 10 µM (inactive) | > 100 µM (inactive) | > 100 µM (inactive) | > 100 µM (inactive) | > 100 | > 100 µM (inactive) | > 100 µM (inactive) | > 100 µM (inactive) | > 100 µM (inactive) | > 100 µM (inactive) | > 100 µM (inactive) | > 100 µM (inactive) | > 100 µM (inactive) | > 100 µM (inactive) | > 100 µM (inactive) | > 100 µM (inactive) | > 100 µM (inactive) | > 100 µM (inactive)
